Values after ≈ are worked out from the molar mass of the structure shown.
Test system: not listed separately
Assay: Kinetic aqueous solubility assay
Format: physicochemical
Conditions: aqueous buffer, kinetic from dmso stock, 0.05M potassium phosphate buffer pH 7.4, 250 μM spike, RT
Description: Using a 10 mM stock solution of test compound in 100% DMSO, test compounds were spiked into 0.05M potassium phosphate buffer (pH 7.4) at a final concentration of 250 μM. Samples in buffer (n=2 aqueous samples, in 96-well plates) were allowed to equilibrate at RT on an orbital shaker for 30 min (300 rpm) to induce precipitation of test compounds. The appearance of each sample was determined by visual examination and noted (clear, cloudy, precipitate observed etc.). […] The concentration of compound in phosphate buffer filtrate was determined by comparing the UV absorbance peak area of each replicate against that of the calibration standards. […] Compounds of the invention have much improved solubility compared to the reference examples.

Row | Structure (SMILES) | solubility at 30 min
1 | O=C(Nc1ccc(OC(F)(F)F)cc1)c1ccc(=O)n(CCN2CCOCC2)c1 [Example 2, 1-(2-Morpholinoethyl)-6-oxo-N-[4-(trifluoromethoxy)phenyl]pyridine-3-carboxamide] | 215 µM (≈ 88.4 µg/mL)
2 | Cn1ccc(-n2cc(C(=O)Nc3ccc(OC(F)(F)Cl)cc3)ccc2=O)n1 [Example 3, N-[4-(Chlorodifluoromethoxy)phenyl]-1-(1-methyl-1H-pyrazol-3-yl)-6-oxo-1,6-dihydropyridine-3-carboxamide] | 140 µM (≈ 55.3 µg/mL)
3 | O=C(Nc1ccc(OC(F)(F)Cl)cc1)c1ccc(=O)n([C@H]2CCOC2)c1 [Example 4, N-[4-[Chloro(difluoro)methoxy]phenyl]-6-oxo-1-[(3S)-tetrahydrofuran-3-yl]pyridine-3-carboxamide] | 180 µM (≈ 69.3 µg/mL)
4 | COc1ncc(-n2cc(C(=O)Nc3ccc(OC(F)(F)Cl)cc3)ccc2=O)cn1 [Example 12, N-[4-[Chloro(difluoro)methoxy]phenyl]-1-(2-methoxypyrimidin-5-yl)-6-oxo-pyridine-3-carboxamide] | 140 µM (≈ 59.2 µg/mL)
5 | CN1CC[C@@H](n2cc(C(=O)Nc3ccc(OC(F)(F)Cl)cc3)ccc2=O)C1 [Example 16, N-[4-[Chloro(difluoro)methoxy]phenyl]-1-[(3R)-1-methylpyrrolidin-3-yl]-6-oxo-pyridine-3-carboxamide] | 180 µM (≈ 71.6 µg/mL)
6 | Cc1c(-n2cc(C(=O)Nc3ccc(OC(F)(F)Cl)cc3)ccc2=O)cnn1C [Example 18, N-[4-[Chloro(difluoro)methoxy]phenyl]-1-(1,5-dimethylpyrazol-4-yl)-6-oxo-pyridine-3-carboxamide] | 200 µM (≈ 81.8 µg/mL)
7 | N#Cc1cccc(-n2cc(C(=O)Nc3ccc(OC(F)(F)Cl)cc3)ccc2=O)c1 [Example 20, N-[4-(Chlorodifluoromethoxy)phenyl]-1-(3-cyanophenyl)-6-oxo-1,6-dihydropyridine-3-carboxamide] | 100 µM (≈ 41.6 µg/mL)
8 | Cn1nccc1-n1cc(C(=O)Nc2ccc(OC(F)(F)Cl)cc2)ccc1=O [Example 25, N-[4-(Chlorodifluoromethoxy)phenyl]-1-(1-methyl-1H-pyrazol-5-yl)-6-oxo-1,6-dihydropyridine-3-carboxamide] | 170 µM (≈ 67.1 µg/mL)
9 | O=C(Nc1ccc(OC(F)(F)Cl)cc1)c1ccc(=O)n(-c2cnn(C(F)F)c2)c1 [Example 27, N-[4-(Chlorodifluoromethoxy)phenyl]-1-[1-(difluoromethyl)-1H-pyrazol-4-yl]-6-oxo-1,6-dihydropyridine-3-carboxamide] | 100 µM (≈ 43.1 µg/mL)
10 | Cn1ncc(-n2cc(C(=O)Nc3ccc(OC(F)(F)Cl)cc3)ccc2=O)c1Cl [Example 30, 1-(5-Chloro-1-methyl-1H-pyrazol-4-yl)-N-[4-(chlorodifluoromethoxy)phenyl]-6-oxo-1,6-dihydropyridine-3-carboxamide] | 140 µM (≈ 60.1 µg/mL)
11 | N#Cc1cncc(-n2cc(C(=O)Nc3ccc(OC(F)(F)Cl)cc3)ccc2=O)c1 [Example 55, N-[4-[Chloro(difluoro)methoxy]phenyl]-1-(5-cyano-3-pyridyl)-6-oxo-pyridine-3-carboxamide] | 150 µM (≈ 62.5 µg/mL)
12 | Cc1cncc(-n2cc(C(=O)Nc3ccc(OC(F)(F)Cl)cc3)ccc2=O)c1 [Example 57, N-[4-[Chloro(difluoro)methoxy]phenyl]-1-(5-methyl-3-pyridyl)-6-oxo-pyridine-3-carboxamide] | 170 µM (≈ 69 µg/mL)
13 | COc1cc(C(=O)Nc2ccc(OC(F)(F)Cl)cc2)cn(-c2cncnc2)c1=O [Example 58, N-[4-[Chloro(difluoro)methoxy]phenyl]-5-methoxy-6-oxo-1-pyrimidin-5-yl-pyridine-3-carboxamide] | 180 µM (≈ 76.1 µg/mL)
14 | Cc1cc(C(=O)Nc2ccc(OC(F)(F)Cl)cc2)cn(-c2cncnc2)c1=O [Example 59, N-[4-[Chloro(difluoro)methoxy]phenyl]-5-methyl-6-oxo-1-pyrimidin-5-yl-pyridine-3-carboxamide] | 190 µM (≈ 77.3 µg/mL)
15 | O=C(Nc1ccc(OC(F)(F)Cl)cc1)c1cc(N2CCOCC2)c(=O)n(-c2cncnc2)c1 [Example 60, N-[4-(Chlorodifluoromethoxy)phenyl]-5-(morpholin-4-yl)-6-oxo-1-(pyrimidin-5-yl)-1,6-dihydropyridine-3-carboxamide] | 210 µM (≈ 100 µg/mL)
16 | Cn1cc2ncc(-n3cc(C(=O)Nc4ccc(OC(F)(F)Cl)cc4)ccc3=O)cc2n1 [Example 71, N-[4-(Chlorodifluoromethoxy)phenyl]-1-{2-methyl-2H-pyrazolo[4,3-b]pyridin-6-yl}-6-oxo-1,6-dihydropyridine-3-carboxamide] | 110 µM (≈ 49 µg/mL)
17 | Cn1cc(C(=O)Nc2ccc(OC(F)(F)Cl)cc2)cc(-c2cncnc2)c1=O [Example 82, N-[4-(Chlorodifluoromethoxy)phenyl]-1-methyl-6-oxo-5-(pyrimidin-5-yl)-1,6-dihydropyridine-3-carboxamide] | 170 µM (≈ 69.2 µg/mL)
18 | O=C(Nc1ccc(OC(F)(F)Cl)cc1)c1cccc(-c2cncnc2)c1 [Ref. ex. 2, N-[4-[Chloro(difluoro)methoxy]phenyl]-3-pyrimidin-5-ylbenzamide, reference compound] | 9 µM (≈ 3.38 µg/mL)
19 | Cc1ccc(C(=O)Nc2ccc(OC(F)(F)F)cc2)cc1-c1cccnc1 [Ref. ex. 3, 4-Methyl-3-(3-pyridyl)-N-[4-(trifluoromethoxy)phenyl]benzamide, reference compound] | 56 µM (≈ 20.9 µg/mL)

Biological target: T1, hERG channel (Homo sapiens, UniProt Q12809)
T1 construct: expressed in transfected cells
T1 sequence (Q12809 whole entry): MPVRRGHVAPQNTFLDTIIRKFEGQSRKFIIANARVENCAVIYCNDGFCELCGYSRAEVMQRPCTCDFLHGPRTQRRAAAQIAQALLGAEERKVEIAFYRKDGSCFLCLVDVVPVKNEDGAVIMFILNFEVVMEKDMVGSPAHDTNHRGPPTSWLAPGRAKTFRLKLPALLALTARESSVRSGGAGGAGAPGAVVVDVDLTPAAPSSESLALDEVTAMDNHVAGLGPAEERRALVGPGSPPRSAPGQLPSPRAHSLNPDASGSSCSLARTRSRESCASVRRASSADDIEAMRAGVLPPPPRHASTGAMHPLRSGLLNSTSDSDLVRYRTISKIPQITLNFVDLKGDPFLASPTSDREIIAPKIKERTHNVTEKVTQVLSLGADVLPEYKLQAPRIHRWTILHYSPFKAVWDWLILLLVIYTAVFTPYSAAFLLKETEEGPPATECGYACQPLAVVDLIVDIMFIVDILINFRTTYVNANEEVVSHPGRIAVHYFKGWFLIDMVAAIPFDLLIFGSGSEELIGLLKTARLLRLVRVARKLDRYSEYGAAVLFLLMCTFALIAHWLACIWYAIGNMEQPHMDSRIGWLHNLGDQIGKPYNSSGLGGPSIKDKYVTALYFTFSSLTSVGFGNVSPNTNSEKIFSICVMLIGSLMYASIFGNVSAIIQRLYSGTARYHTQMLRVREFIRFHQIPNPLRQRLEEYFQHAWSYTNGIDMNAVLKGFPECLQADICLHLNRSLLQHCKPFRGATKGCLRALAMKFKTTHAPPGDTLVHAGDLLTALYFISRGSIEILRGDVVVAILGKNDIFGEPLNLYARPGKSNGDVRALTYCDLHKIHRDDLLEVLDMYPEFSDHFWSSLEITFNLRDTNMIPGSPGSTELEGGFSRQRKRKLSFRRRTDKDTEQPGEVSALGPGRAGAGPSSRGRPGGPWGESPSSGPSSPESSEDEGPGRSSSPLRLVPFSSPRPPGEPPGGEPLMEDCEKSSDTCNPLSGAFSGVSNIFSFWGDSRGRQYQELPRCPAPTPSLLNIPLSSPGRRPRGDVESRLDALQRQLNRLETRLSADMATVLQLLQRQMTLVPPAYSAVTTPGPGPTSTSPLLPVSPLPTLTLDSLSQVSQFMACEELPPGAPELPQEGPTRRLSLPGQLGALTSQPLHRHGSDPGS
Assay: hERG assay (QPatch automated patch clamp, CHO cells)
Format: cell-based
Conditions: CHO cells expressing hERG, whole-cell patch clamp, 0.003 μM to 10 μM
Excerpt: The human ether-a-go-go related gene (hERG) potassium channel (Kv11.1) contributes to human cardiac action potential repolarisation. Inhibition of hERG channels can prolong the human cardiac action potential, resulting in QTc prolongation and potentially lethal arrhythmias (e.g. Torsade de Pointes).
Test samples were screened against the hERG channel on a QPatch 48 gigaseal automated patch clamp platform, using a Chinese Hamster Ovary (CHO) cell line stably expressing the human ether-á-go-go related gene, which encodes the hERG channel. All recordings were made in the conventional whole-cell configuration and performed at RT ([…]) using standard single hole chips (Rchip 1.5-4M0). Series resistance (4-15Mc) was compensated by >80%. Currents were elicited from a holding potential of −90 mV using the industry standard “^+40/−40” voltage protocol, which was applied at a stimulus frequency of 0.1 Hz. On achieving the whole-cell configuration, vehicle (0.1% DMSO v/v in external recording solution) was applied to each cell in two bolus additions with a 2 min recording period between each addition. Following the vehicle period, eight increasing concentrations of test sample were applied from 0.003 μM to 10 μM as a single bolus addition per test concentration, and the effects on hERG tail current amplitude measured during the 2 min recording period. Each eight-point concentration-response curve was constructed using cumulative single sample additions of each concentration to the same cell. The positive control used in this study was verapamil hydrochloride (Tocris, Cat #0654, Batch #5A/61673) and prepared to a stock concentration of 10 mM in 100% DMSO and kept as frozen aliquots.
Data analysis: All cells passing the QC parameters (i.e. >200 pA outward current, membrane resistance and rundown) are selected as ‘passed QC’ using the QPatch software, which then calculates the mean peak current for the last three sweeps at the end of each concentration application period from the cursor positions defined. Percent inhibition is calculated for each test concentration application period as the reduction in mean cursor value (peak current or charge) relative to the cursor value measured at the end of the control (i.e. vehicle) period. The percent inhibition values from each cell are used to construct concentration-response curves employing a four parametric logistic fit with 0 and 100% inhibition levels fixed at very low and very high concentrations, respectively, and a free Hill slope factor. The IC50 (50% inhibitory concentration) and Hill coefficient are then determined, but only data from cells with Hill slopes within 0.5>nH<2.0 are included. The IC50 data reported below represents the mean (and S.D.) of at least three separate cells (N≥3). […] Compounds of the invention show reduced hERG inhibitory activity compared to the reference examples.

Row | Structure (SMILES) | IC50
20 | Cc1c(-n2cc(C(=O)Nc3ccc(OC(F)(F)Cl)cc3)ccc2=O)cnn1C [Example 18, N-[4-[Chloro(difluoro)methoxy]phenyl]-1-(1,5-dimethylpyrazol-4-yl)-6-oxo-pyridine-3-carboxamide] | > 10 µM
21 | Cn1cc(C(=O)Nc2ccc(OC(F)(F)F)cc2)ccc1=O [Example 26, 1-Methyl-6-oxo-N-[4-(trifluoromethoxy)phenyl]pyridine-3-carboxamide] | > 10 µM
22 | Cn1cc(C(=O)Nc2ccc(OC(F)(F)Cl)cc2)cc(-c2cncnc2)c1=O [Example 82, N-[4-(Chlorodifluoromethoxy)phenyl]-1-methyl-6-oxo-5-(pyrimidin-5-yl)-1,6-dihydropyridine-3-carboxamide] | > 10 µM
23 | O=C(Nc1ccc(OC(F)(F)Cl)cc1)c1cccc(-c2cncnc2)c1 [Ref. ex. 2, N-[4-[Chloro(difluoro)methoxy]phenyl]-3-pyrimidin-5-ylbenzamide, reference compound] | 1.9 µM
24 | Cc1ccc(C(=O)Nc2ccc(OC(F)(F)F)cc2)cc1-c1cccnc1 [Ref. ex. 3, 4-Methyl-3-(3-pyridyl)-N-[4-(trifluoromethoxy)phenyl]benzamide, reference compound] | 2.5 µM
